Assay results published in BindingDB's records for patent US9796704 (SYMPHONY EVOLUTION, INC., 2017).

Legend:
[1] = target: Vascular endothelial growth factor receptor 2 (Homo sapiens, UniProt P35968); test: AlphaScreen Assay
Ephrin type-A receptor 2 = Ephrin type-A receptor 2 (Homo sapiens, UniProt P29317); test: AlphaScreen Assay
Ephrin type-A receptor 2, sequence (P29317 whole entry): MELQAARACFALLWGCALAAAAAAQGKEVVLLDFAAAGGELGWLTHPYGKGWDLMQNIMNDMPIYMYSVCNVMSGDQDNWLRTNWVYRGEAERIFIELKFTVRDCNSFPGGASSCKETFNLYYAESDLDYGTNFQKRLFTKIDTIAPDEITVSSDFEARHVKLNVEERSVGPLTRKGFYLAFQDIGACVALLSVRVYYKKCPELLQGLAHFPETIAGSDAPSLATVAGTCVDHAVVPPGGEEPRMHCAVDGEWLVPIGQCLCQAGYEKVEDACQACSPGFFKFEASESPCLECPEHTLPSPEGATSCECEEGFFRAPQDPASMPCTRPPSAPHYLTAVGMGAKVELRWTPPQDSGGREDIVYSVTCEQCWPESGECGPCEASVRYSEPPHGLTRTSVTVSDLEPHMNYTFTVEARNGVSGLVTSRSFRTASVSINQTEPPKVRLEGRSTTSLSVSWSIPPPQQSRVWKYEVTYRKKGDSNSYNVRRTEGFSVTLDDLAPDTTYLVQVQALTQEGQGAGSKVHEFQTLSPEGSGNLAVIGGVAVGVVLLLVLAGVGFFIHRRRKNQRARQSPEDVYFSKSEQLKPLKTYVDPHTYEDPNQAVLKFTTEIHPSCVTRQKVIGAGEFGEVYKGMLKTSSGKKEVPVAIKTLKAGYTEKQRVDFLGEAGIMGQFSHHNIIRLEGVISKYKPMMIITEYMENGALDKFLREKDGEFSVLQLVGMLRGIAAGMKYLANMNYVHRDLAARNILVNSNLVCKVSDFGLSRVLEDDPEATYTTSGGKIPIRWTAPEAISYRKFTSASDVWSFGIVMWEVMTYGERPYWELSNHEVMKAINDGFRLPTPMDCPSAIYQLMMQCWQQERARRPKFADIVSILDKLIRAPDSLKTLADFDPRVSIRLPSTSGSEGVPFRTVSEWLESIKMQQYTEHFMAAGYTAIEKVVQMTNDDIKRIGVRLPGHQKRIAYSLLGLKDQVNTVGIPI

Vascular endothelial growth factor receptor 2, sequence (P35968 whole entry): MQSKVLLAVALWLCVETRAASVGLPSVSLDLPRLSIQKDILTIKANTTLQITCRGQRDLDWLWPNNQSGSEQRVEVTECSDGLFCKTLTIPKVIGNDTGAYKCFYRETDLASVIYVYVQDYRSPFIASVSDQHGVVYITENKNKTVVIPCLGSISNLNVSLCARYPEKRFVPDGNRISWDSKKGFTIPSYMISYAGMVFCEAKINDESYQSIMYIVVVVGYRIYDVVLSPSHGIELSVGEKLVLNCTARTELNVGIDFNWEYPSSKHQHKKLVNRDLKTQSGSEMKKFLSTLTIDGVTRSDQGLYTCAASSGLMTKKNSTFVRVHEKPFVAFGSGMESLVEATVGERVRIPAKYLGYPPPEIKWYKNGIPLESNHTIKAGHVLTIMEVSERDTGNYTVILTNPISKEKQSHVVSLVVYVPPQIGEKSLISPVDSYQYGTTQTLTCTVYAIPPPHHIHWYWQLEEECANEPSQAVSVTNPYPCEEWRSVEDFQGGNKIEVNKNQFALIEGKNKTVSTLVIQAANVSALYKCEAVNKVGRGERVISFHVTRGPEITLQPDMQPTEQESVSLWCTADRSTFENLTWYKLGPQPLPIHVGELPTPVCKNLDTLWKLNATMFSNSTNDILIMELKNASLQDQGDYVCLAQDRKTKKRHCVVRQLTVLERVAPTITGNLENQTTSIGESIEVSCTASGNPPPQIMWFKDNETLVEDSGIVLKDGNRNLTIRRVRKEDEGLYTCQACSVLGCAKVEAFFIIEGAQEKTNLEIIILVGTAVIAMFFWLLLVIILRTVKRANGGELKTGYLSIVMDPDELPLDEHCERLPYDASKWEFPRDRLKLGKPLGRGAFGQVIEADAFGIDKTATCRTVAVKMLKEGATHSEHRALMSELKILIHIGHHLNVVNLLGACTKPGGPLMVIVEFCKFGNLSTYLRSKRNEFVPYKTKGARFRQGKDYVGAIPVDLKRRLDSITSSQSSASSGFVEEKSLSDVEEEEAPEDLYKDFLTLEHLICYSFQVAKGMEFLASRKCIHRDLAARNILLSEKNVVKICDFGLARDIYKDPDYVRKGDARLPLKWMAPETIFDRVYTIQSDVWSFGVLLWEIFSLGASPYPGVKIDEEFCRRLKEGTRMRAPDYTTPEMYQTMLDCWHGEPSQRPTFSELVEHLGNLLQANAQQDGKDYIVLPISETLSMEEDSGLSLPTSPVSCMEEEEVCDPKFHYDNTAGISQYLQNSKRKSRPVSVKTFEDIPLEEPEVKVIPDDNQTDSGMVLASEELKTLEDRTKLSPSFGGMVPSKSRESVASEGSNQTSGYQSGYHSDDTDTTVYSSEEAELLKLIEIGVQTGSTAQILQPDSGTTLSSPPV

SMILES	IC50 [1]	IC50 (Ephrin type-A receptor 2)
COc1cc2c(Nc3cc(Cl)c(Br)cc3F)ncnc2cc1OC[C@H]1CN2CCOCC2CO1 (some centres not stated) [US9796704, Entry 20]	< 50 nM	
COc1cc2c(Nc3ccc(F)c(F)c3F)ncnc2cc1O[C@@H]1CO[C@@H]2[C@H]1OC[C@H]2F [US9796704, Entry 84]	in the range around 525 nM	in the range around 525 nM
COc1cc2c(Nc3ccc(Cl)c(Cl)c3)ncnc2cc1OCc1nc(N(C)C)no1 [US9796704, Entry 206]	in the range around 525 nM	
COc1cc2c(Nc3ccc(Cl)c(Cl)c3)ncnc2cc1OCCC1OCCCO1 [US9796704, Entry 189]	in the range around 525 nM	
COc1cc2c(Nc3ccc(Cl)c(Cl)c3)ncnc2cc1OCc1ccc2nonc2c1 [US9796704, Entry 163]	in the range around 525 nM	in the range around 525 nM
COc1cc2c(Nc3ccc(Cl)c(Cl)c3)ncnc2cc1OCc1nc(CN2CCN(C)CC2)cs1 [US9796704, Entry 207]	in the range around 525 nM	
COc1cc2c(Nc3ccc(Br)c(Cl)c3)ncnc2cc1O[C@H]1CO[C@@H]2CCO[C@H]12 [US9796704, Entry 77]	in the range around 525 nM	
COc1cc2c(Nc3cc(Cl)c(Cl)cc3F)ncnc2cc1OC[C@@H]1CO[C@H]2[C@@H]1OC[C@@H]2OC [US9796704, Entry 48]	in the range around 10500 nM	
COc1cc2c(Nc3ccc(Cl)c(Cl)c3)ncnc2cc1OCc1noc(C2CCCN(C)C2)n1 (configuration not stated) [US9796704, Entry 156]	in the range around 525 nM	in the range around 525 nM
COc1cc2c(Nc3ccc(Br)c(Cl)c3Cl)ncnc2cc1O[C@@H]1CO[C@@H]2[C@H]1OC[C@H]2F [US9796704, Entry 103]	in the range around 525 nM	in the range around 525 nM
COc1cc2c(Nc3ccc(Cl)c(Cl)c3)ncnc2cc1OCCC1CCCCC1 [US9796704, Entry 185]	in the range around 525 nM	
COc1cc2c(Nc3ccc(Cl)c(Cl)c3)ncnc2cc1OC[C@H]1CN2CCC[C@@H]2CO1 [US9796704, Entry 31]		< 50 nM
COc1cc2c(Nc3ccc(Cl)c(Cl)c3)ncnc2cc1OCCN1CCOCC1 [US9796704, Entry 190]	in the range around 525 nM	
COc1cc2c(Nc3cccc(Cl)c3C)ncnc2cc1O[C@H]1CO[C@H]2[C@@H]1OC[C@@H]2OC [US9796704, Entry 76]	in the range around 525 nM	
COc1cc2c(Nc3ccc(Cl)c(Cl)c3)ncnc2cc1OCCC1OCCO1 [US9796704, Entry 188]	in the range around 525 nM	
COc1cc2c(Nc3cccc(Cl)c3F)ncnc2cc1O[C@H]1CO[C@H]2[C@@H]1OC[C@@H]2OC [US9796704, Entry 71]	in the range around 525 nM	
COc1cc2c(Nc3ccc(Cl)c(Cl)c3)ncnc2cc1OCCN1CCCC1 [US9796704, Entry 191]	in the range around 525 nM	
COc1cc2c(Nc3ccc(Cl)c(Cl)c3)ncnc2cc1OCc1nc(CN2CCOCC2)cs1 [US9796704, Entry 209]	in the range around 525 nM	
COc1cc2c(Nc3ccc(Cl)c(Cl)c3)ncnc2cc1OCc1nc(-c2ccccn2)cs1 [US9796704, Entry 202]	in the range around 525 nM	
COc1cc2c(Nc3ccc(F)c(Cl)c3F)ncnc2cc1O[C@@H]1CO[C@@H]2[C@H]1OC[C@H]2F [US9796704, Entry 137]	in the range around 525 nM	in the range around 525 nM

SMILES	IC50 [1]	IC50 (Ephrin type-A receptor 2)
COc1cc2c(Nc3ccc(F)cc3)ncnc2cc1O[C@@H]1CO[C@@H]2[C@H]1OC[C@H]2F [US9796704, Entry 115]	in the range around 10500 nM	
COc1cc2c(Nc3ccc(Cl)c(Cl)c3)ncnc2cc1OCc1noc(C2CCCCN2C)n1 (configuration not stated) [US9796704, Entry 154]	in the range around 525 nM	in the range around 525 nM
COc1cc2c(Nc3ccc(Cl)c(Cl)c3)ncnc2cc1OCc1nc(CN2CCOCC2)no1 [US9796704, Entry 143]	in the range around 525 nM	in the range around 525 nM
CCN1CCCCC1c1nc(COc2cc3ncnc(Nc4ccc(Cl)c(Cl)c4)c3cc2OC)no1 (configuration not stated) [US9796704, Entry 219]	in the range around 525 nM	
COc1cc(OC)c(Nc2ncnc3cc(O[C@@H]4CO[C@@H]5[C@H]4OC[C@H]5F)c(OC)cc23)cc1Cl [US9796704, Entry 135]	in the range around 525 nM	in the range around 525 nM
COc1cc2c(Nc3ccc(Cl)c(Cl)c3)ncnc2cc1OCc1nc2c(s1)CNCC2 [US9796704, Entry 208]	in the range around 525 nM	
COc1cc2c(Nc3cc(F)c(Br)c(Cl)c3)ncnc2cc1O[C@@H]1CO[C@@H]2[C@H]1OC[C@H]2F [US9796704, Entry 104]		in the range around 525 nM
COc1cc2c(Nc3ccc(Cl)c(Cl)c3)ncnc2cc1OCc1csc(C2CCNCC2)n1 [US9796704, Entry 213]	in the range around 525 nM	
COc1cc2c(Nc3ccc(Cl)c(Cl)c3)ncnc2cc1OCC1CCCO1 (configuration not stated) [US9796704, Entry 183]	in the range around 525 nM	
COc1cc2c(Nc3ccc(Cl)c(Cl)c3)ncnc2cc1OCC1CCCCC1 [US9796704, Entry 186]	in the range around 525 nM	
CCN1CCOC(COc2cc3ncnc(Nc4ccc(Cl)c(Cl)c4)c3cc2OC)C1 (configuration not stated) [US9796704, Entry 212]	in the range around 10500 nM	
COc1cc2c(Nc3cccc(Cl)c3)ncnc2cc1O[C@@H]1CO[C@@H]2[C@H]1OC[C@H]2F [US9796704, Entry 114]	in the range around 10500 nM	in the range around 525 nM
COc1cc2c(Nc3ccc(Cl)c(Cl)c3)ncnc2cc1OCc1noc(C2CCCNC2)n1 (configuration not stated) [US9796704, Entry 153]	in the range around 525 nM	in the range around 525 nM
COc1cc2c(Nc3ccc(Cl)c(Cl)c3)ncnc2cc1OCc1noc(C2CCCCN2)n1 (configuration not stated) [US9796704, Entry 145]	in the range around 525 nM	in the range around 10500 nM
COc1cc2c(Nc3cc(Cl)c(Cl)cc3F)ncnc2cc1O[C@@H]1CO[C@@H]2[C@H]1OC[C@H]2F [US9796704, Entry 105]	in the range around 525 nM	in the range around 525 nM
COc1cc2c(Nc3ccc(Cl)c(Cl)c3)ncnc2cc1OCc1c(-c2ccccc2)nn(C)c1Cl [US9796704, Entry 175]	in the range around 525 nM	in the range around 525 nM
COc1cc2c(Nc3ccc(Cl)c(Cl)c3)ncnc2cc1OCC(=O)N1CCOCC1 [US9796704, Entry 195]	in the range around 525 nM	
COc1cc2c(Nc3ccc(Cl)c(Cl)c3)ncnc2cc1OCC1CN(C)CCO1 (configuration not stated) [US9796704, Entry 151]	in the range around 525 nM	
COc1cc2c(Nc3ccc(Cl)c(Cl)c3)ncnc2cc1OCc1cscn1 [US9796704, Entry 170]	in the range around 525 nM	
COc1cc2c(Nc3ccc(Br)c(Cl)c3)ncnc2cc1O[C@H]1CO[C@@H]2C3OC(C)(C)O[C@H]3O[C@H]12 (some centres not stated) [US9796704, Entry 80]	in the range around 525 nM	in the range around 525 nM

SMILES	IC50 [1]	IC50 (Ephrin type-A receptor 2)
COc1cc2c(Nc3ccc(Cl)c(Cl)c3)ncnc2cc1OCc1nc(-c2ccc(O)c(C(N)=O)c2)cs1 [US9796704, Entry 200]	in the range around 525 nM	
COc1cc2c(Nc3ccc(Cl)c(Cl)c3)ncnc2cc1OCc1nc(CN2CCN(C)CC2)no1 [US9796704, Entry 140]		in the range around 525 nM
COc1cc2c(Nc3ccc(Cl)c(Cl)c3)ncnc2cc1OCc1noc(-c2ccc(C(F)(F)F)cc2)n1 [US9796704, Entry 167]	in the range around 525 nM	
CCO[C@H]1CO[C@H]2[C@@H]1OC[C@@H]2Oc1cc2ncnc(Nc3ccc(Br)c(Cl)c3)c2cc1OC [US9796704, Entry 74]	in the range around 525 nM	
COc1cc2c(Nc3ccc(Cl)c(Cl)c3)ncnc2cc1OCc1noc(CN(C)C)n1 [US9796704, Entry 138]		in the range around 525 nM
COc1cc2c(Nc3cc(Cl)ccc3Cl)ncnc2cc1O[C@@H]1CO[C@@H]2[C@H]1OC[C@H]2F [US9796704, Entry 118]	in the range around 525 nM	
COc1cc2c(Nc3ccc(Cl)c(Cl)c3)ncnc2cc1OCc1nc(N2CCN(C(=O)OC(C)(C)C)CC2)no1 [US9796704, Entry 215]	in the range around 525 nM	
COc1cc2c(Nc3cccc(Br)c3C)ncnc2cc1O[C@H]1CO[C@H]2[C@@H]1OC[C@@H]2OC [US9796704, Entry 75]	in the range around 525 nM	
COc1cc2c(Nc3ccc(Cl)c(Cl)c3)ncnc2cc1OC1CCCC1 [US9796704, Entry 184]	in the range around 525 nM	
COc1cc2c(Nc3ccc(Cl)c(Cl)c3)ncnc2cc1OCc1csc(C2CCN(C)CC2)n1 [US9796704, Entry 214]	in the range around 525 nM	
COc1cc2c(Nc3ccc(Cl)c(Cl)c3)ncnc2cc1OCCN1CCCCC1 [US9796704, Entry 192]	in the range around 525 nM	
COc1cc2c(Nc3ccc(Br)c(Cl)c3Cl)ncnc2cc1OC[C@@H]1CN2CCC[C@H]2CO1 [US9796704, Entry 39]		in the range around 525 nM
COc1cc2c(Nc3ccc(Cl)c(Cl)c3)ncnc2cc1OCc1nc(N2CCOCC2)no1 [US9796704, Entry 205]	in the range around 525 nM	
COc1cc2c(Nc3ccc(Cl)c(Cl)c3)ncnc2cc1OCC1CN(C)CCCO1 (configuration not stated) [US9796704, Entry 155]		in the range around 525 nM
COc1cc2c(Nc3ccc(Cl)c(Cl)c3)ncnc2cc1OCc1noc(C)c1-c1ccccc1 [US9796704, Entry 161]		in the range around 525 nM
COc1cc2c(Nc3ccc(Cl)c(Cl)c3)ncnc2cc1OCC1CC1 [US9796704, Entry 182]	in the range around 525 nM	
COc1cc2c(Nc3ccc(Cl)c(Cl)c3)ncnc2cc1OCC1CCC1 [US9796704, Entry 187]	in the range around 525 nM	
COc1cc2c(Nc3ccc(Cl)c(Cl)c3)ncnc2cc1OCc1nc(-c2cccnc2)cs1 [US9796704, Entry 201]	in the range around 525 nM	
